Results: article PMC12606464, “Investigating NFE2L1 activators for targeted protein aggregate clearance: a follow-up study” (RSC Medicinal Chemistry, 2025)

Test system: proteasome subunit gene expression (PSMC4, PSMB7, PSMD12)
Assay: RT-qPCR of proteasome genes in NFE2L1/NFE2L2-knockdown HEK293 cells
Type: cell-based, human
Conditions: for NFE2L1 mRNA, mean diff between siRNA treatments, log2 / NFE2L2 mRNA, mean diff between siRNA treatments, log2 / PSMB7 mRNA, mean diff between siRNA treatments, log2 / PSMD12 mRNA, mean diff between siRNA treatments, log2: RUN89-treated
Description: Fig. 1 (A) Targeted library screening of RUN compounds using the 3×PSMA4-ARE-LUC dual reporter assay in HEK293 cells. Cells were exposed to RUN compounds (5 μM) for 16 hours, and luciferase activity was measured. Data are presented as the mean ± SD from three independent experiments (n = 3). Results are shown as a fold change in luminescence relative to DMSO-treated cells. Selected hit compounds are highlighted in distinct colours. (B) RUN-89 specifically activates the NFE2L1 pathway. The DDI2 knockout (KO) and parental (WT) HCT116 cells were transfected with the 3×PSMA4-ARE-LUC reporter and treated with 0.5 μM bortezomib (BTZ) and 5 μM RUN-89 for 16 hours. Data are presented as the Geomean ± GeoSD of three independent experiments (n = 3). Statistical analysis was performed on log2-transformed values using two-way repeated-measures ANOVA followed by Šídak's multiple comparison test. (C) RUN-89 selectively triggers downstream signaling events associated with NFE2L1 gene expression. HEK293 cells were transfected with lipid nanoparticles (LNPs) carrying siRNAs targeting NFE2L1 or NFE2L2. LNPs formulated with non-targeting siRNA served as a negative control. Following 24 hours of incubation, cells were treated with 7.5 μM RUN-89 or DMSO (vehicle) for an additional 16 hours. Expression of the proteasomal subunit gene PSMC4 was then quantified by RT-qPCR. Data are shown as the Geomean ± GeoSD from three independent biological replicates (n = 3). Log2-transformed data were analyzed using two-way repeated-measures ANOVA with the Geisser–Greenhouse correction, followed by Tukey's multiple comparison test with individual variances computed for each comparison. Additional results for NFE2L1, NFE2L2, PSMB7, and PSMD12 are presented in SI Fig. S10.
To further confirm that RUN-89 acts through NFE2L1-dependent signalling, we investigated the effect of selective knockdown of NFE2L1 and NFE2L2 on the induction of proteasomal genes. HEK293 cells (from ATCC CCL-247 (RRID:CVCL_0291)) were transfected with lipid nanoparticles (LNPs) carrying siRNAs targeting either NFE2L1 or NFE2L2, while non-targeting siRNA was used as a control. After treatment with RUN-89, transcript levels of several proteasome subunit genes were analyzed by RT-qPCR.
Figure S10: Effects of RUN-89 on NFE2L1- and NFE2L2-associated target genes following […]
HEK293 cells were transfected with lipid nanoparticles (LNPs) containing siRNAs against NFE2L1, NFE2L2, or a non-targeting control siRNA. After 24 hours, cells were treated with 7.5 μM RUN-89 or DMSO (vehicle) for an additional 16 h, and transcript levels of NFE2L1, NFE2L2, PSMB4, PSMB7, and PSMD12 were quantified by RT -qPCR. Data are presented as mean ± SD from three independent biological replicates (n = 3). Log₂ -transformed data were analyzed by two -way repeated-measures ANOVA with Geisser –Greenhouse correction, followed by Tukey’s multiple compa rison test with individual variances computed for each comparison.
2.16 Analysis of proteasome genes expression in NFE2L1/NFE2L2-
The corresponding HEK293 cells were seeded into 24-well culture plates (120,000 cells/well) and allowed to adhere overnight under standard culture conditions. On the following day, cells were transfected with siRNAs targeting NFE2L1, NFE2L2, or a non-targeting negative control siRNA (Table S2). Transfections were performed using a lipid nanoparticle (LNP) delivery system assembled as previously described,(7) with a final siRNA concentration of ~0.2 nmol per well. After 24 h of incubation, cells were treated with 7.5 µM […] or DMSO (vehicle control) for 16 h. Total RNA was then extracted, converted into cDNA, and analyzed by RT-qPCR using primers targeting proteasome genes (listed in Section 2.5, Quantitative RT-PCR, Table S1). Expression levels were normalized to RPLP0 mRNA. The […]

[1] = NFE2L1 siRNA vs. NFE2L1 + L2 siRNA
[2] = NFE2L2 siRNA vs. NFE2L1 + L2 siRNA
[3] = Non transfected vs. NFE2L1 + L2 siRNA
[4] = Non transfected vs. NFE2L1 siRNA
[5] = Non transfected vs. NFE2L2 siRNA
[6] = Non transfected vs. Scramble control siRNA
[7] = Scramble control siRNA vs. NFE2L1 + L2 siRNA
[8] = Scramble control siRNA vs. NFE2L1 siRNA
[9] = Scramble control siRNA vs. NFE2L2 siRNA

COc1ccc(/C=C2\CC(NC(=O)C3CCCC3)C/C(=C\c3ccc(OC)c(OC)c3)C2=O)cc1OC (centres unmarked) [RUN-89]
PSMC4 expression, mean log2, NFE2L1 + L2 siRNA (7.5 μM, 16 h, HEK293): 0.5367 | PSMC4 expression, mean log2, NFE2L1 siRNA (7.5 μM, 16 h, HEK293): 0.5329 | PSMC4 expression, mean log2, NFE2L2 siRNA (7.5 μM, 16 h, HEK293): 1.12 | PSMC4 expression, mean log2, scramble control siRNA (7.5 μM, 16 h, HEK293): 1.335 | PSMC4 expression, row mean of log2 values over all siRNA treatments (7.5 μM, 16 h, HEK293): 0.9981 | PSMC4 expression, mean log2, non transfected (7.5 μM, 16 h, HEK293, no siRNA): 1.466 | Induction of PSMC4 expression upon silencing of NFE2L1, but not NFE2L2 (HEK293, siRNA LNPs): markedly reduced | Mean diff, of log2-transformed values, DMSO vs. RUN89 (NFE2L1 + L2 siRNA): 0.1671 | NFE2L1 mRNA, mean diff DMSO vs. RUN89, log2 (NFE2L1 + L2 siRNA): 0.4839 | NFE2L1 mRNA, mean of log2-transformed values (NFE2L1 + L2 siRNA): -1.849 | NFE2L2 mRNA, mean diff DMSO vs. RUN89, log2 (NFE2L1 + L2 siRNA): 0.1671 | PSMB7 mRNA, mean diff DMSO vs. RUN89, log2 (NFE2L1 + L2 siRNA): -0.04295 | PSMB7 mRNA, mean of log2-transformed values (NFE2L1 + L2 siRNA): -0.005215 | PSMD12 mRNA, mean diff DMSO vs. RUN89, log2 (NFE2L1 + L2 siRNA): -1.247 | PSMD12 mRNA, mean of log2-transformed values (NFE2L1 + L2 siRNA): 1.4 | Mean diff, of log2-transformed values, DMSO vs. RUN89 (NFE2L1 siRNA): 0.3261 | NFE2L1 mRNA, mean diff DMSO vs. RUN89, log2 (NFE2L1 siRNA): 0.5812 | NFE2L1 mRNA, mean of log2-transformed values (NFE2L1 siRNA): -2.192 | NFE2L2 mRNA, mean diff DMSO vs. RUN89, log2 (NFE2L1 siRNA): 0.3261 | PSMB7 mRNA, mean diff DMSO vs. RUN89, log2 (NFE2L1 siRNA): 0.02314 | PSMB7 mRNA, mean of log2-transformed values (NFE2L1 siRNA): -0.07162 | PSMD12 mRNA, mean diff DMSO vs. RUN89, log2 (NFE2L1 siRNA): -1.239 | PSMD12 mRNA, mean of log2-transformed values (NFE2L1 siRNA): 1.413 | Mean diff, of log2-transformed values, DMSO vs. RUN89 (NFE2L2 siRNA): 0.07457 | NFE2L1 mRNA, mean diff DMSO vs. RUN89, log2 (NFE2L2 siRNA): -0.06055 | NFE2L1 mRNA, mean of log2-transformed values (NFE2L2 siRNA): -0.3257 | NFE2L2 mRNA, mean diff DMSO vs. RUN89, log2 (NFE2L2 siRNA): 0.07457 | PSMB7 mRNA, mean diff DMSO vs. RUN89, log2 (NFE2L2 siRNA): -0.4898 | PSMB7 mRNA, mean of log2-transformed values (NFE2L2 siRNA): 0.4898 | PSMD12 mRNA, mean diff DMSO vs. RUN89, log2 (NFE2L2 siRNA): -1.678 | PSMD12 mRNA, mean of log2-transformed values (NFE2L2 siRNA): 1.979 | Mean diff, of log2-transformed values, DMSO vs. RUN89 (Non transfected): -0.3265 | NFE2L2 mRNA, mean diff DMSO vs. RUN89, log2 (Non transfected): -0.3265 | PSMB7 mRNA, mean diff DMSO vs. RUN89, log2 (Non transfected): -0.7476 | PSMB7 mRNA, mean of log2-transformed values (Non transfected): 0.7599 | PSMD12 mRNA, mean diff DMSO vs. RUN89, log2 (Non transfected): -1.909 | PSMD12 mRNA, mean of log2-transformed values (Non transfected): 2.076 | NFE2L1 mRNA, mean diff between siRNA treatments, log2 [1]: 0.3437 | NFE2L2 mRNA, mean diff between siRNA treatments, log2 [1]: 2.749 | PSMB7 mRNA, mean diff between siRNA treatments, log2 [1]: -0.0664 | PSMD12 mRNA, mean diff between siRNA treatments, log2 [1]: 0.01218 | NFE2L1 mRNA, mean diff between siRNA treatments, log2 (NFE2L1 siRNA vs. NFE2L2 siRNA): 1.867 | NFE2L2 mRNA, mean diff between siRNA treatments, log2 (NFE2L1 siRNA vs. NFE2L2 siRNA): 2.85 | PSMB7 mRNA, mean diff between siRNA treatments, log2 (NFE2L1 siRNA vs. NFE2L2 siRNA): -0.5614 | PSMD12 mRNA, mean diff between siRNA treatments, log2 (NFE2L1 siRNA vs. NFE2L2 siRNA): -0.5664 | NFE2L1 mRNA, mean diff between siRNA treatments, log2 [2]: -1.523 | NFE2L2 mRNA, mean diff between siRNA treatments, log2 [2]: -0.1013 | PSMB7 mRNA, mean diff between siRNA treatments, log2 [2]: 0.495 | PSMD12 mRNA, mean diff between siRNA treatments, log2 [2]: 0.5786 | NFE2L1 mRNA, mean diff between siRNA treatments, log2 [3]: -2.639 | NFE2L2 mRNA, mean diff between siRNA treatments, log2 [3]: 3.437 | PSMB7 mRNA, mean diff between siRNA treatments, log2 [3]: 0.7651 | PSMD12 mRNA, mean diff between siRNA treatments, log2 [3]: 0.6755 | NFE2L1 mRNA, mean diff between siRNA treatments, log2 [4]: -2.982 | NFE2L2 mRNA, mean diff between siRNA treatments, log2 [4]: 0.6883 | PSMB7 mRNA, mean diff between siRNA treatments, log2 [4]: 0.8315 | PSMD12 mRNA, mean diff between siRNA treatments, log2 [4]: 0.6633 | NFE2L1 mRNA, mean diff between siRNA treatments, log2 [5]: -1.115 | NFE2L2 mRNA, mean diff between siRNA treatments, log2 [5]: 3.539 | PSMB7 mRNA, mean diff between siRNA treatments, log2 [5]: 0.27 | PSMD12 mRNA, mean diff between siRNA treatments, log2 [5]: 0.09696 | NFE2L2 mRNA, mean diff between siRNA treatments, log2 [6]: -0.01225 | PSMB7 mRNA, mean diff between siRNA treatments, log2 [6]: 0.1431 | PSMD12 mRNA, mean diff between siRNA treatments, log2 [6]: -0.01734 | NFE2L1 mRNA, mean diff between siRNA treatments, log2 [7]: -2.465 | NFE2L2 mRNA, mean diff between siRNA treatments, log2 [7]: 3.45 | PSMB7 mRNA, mean diff between siRNA treatments, log2 [7]: 0.622 | PSMD12 mRNA, mean diff between siRNA treatments, log2 [7]: 0.6929 | NFE2L1 mRNA, mean diff between siRNA treatments, log2 [8]: -2.808 | NFE2L2 mRNA, mean diff between siRNA treatments, log2 [8]: 0.7005 | PSMB7 mRNA, mean diff between siRNA treatments, log2 [8]: 0.6884 | PSMD12 mRNA, mean diff between siRNA treatments, log2 [8]: 0.6807 | NFE2L1 mRNA, mean diff between siRNA treatments, log2 [9]: -0.9417 | NFE2L2 mRNA, mean diff between siRNA treatments, log2 [9]: 3.551 | PSMB7 mRNA, mean diff between siRNA treatments, log2 [9]: 0.127 | PSMD12 mRNA, mean diff between siRNA treatments, log2 [9]: 0.1143 | Mean diff, of log2-transformed values, DMSO vs. RUN89 (Scramble control siRNA): -0.3474 | NFE2L1 mRNA, mean diff DMSO vs. RUN89, log2 (Scramble control siRNA): 0.6041 | NFE2L1 mRNA, mean of log2-transformed values (Scramble control siRNA): 0.616 | NFE2L2 mRNA, mean diff DMSO vs. RUN89, log2 (Scramble control siRNA): -0.3474 | PSMB7 mRNA, mean diff DMSO vs. RUN89, log2 (Scramble control siRNA): -0.6138 | PSMB7 mRNA, mean of log2-transformed values (Scramble control siRNA): 0.6168 | PSMD12 mRNA, mean diff DMSO vs. RUN89, log2 (Scramble control siRNA): -2.092 | PSMD12 mRNA, mean of log2-transformed values (Scramble control siRNA): 2.093 | NFE2L1 mRNA, mean of log2-transformed values (row mean) (mean over all siRNA treatments): -0.5922 | NFE2L2 mRNA, mean of log2-transformed values (row mean) (mean over all siRNA treatments): -1.194 | PSMB7 mRNA, mean of log2-transformed values (row mean) (mean over all siRNA treatments): 0.3579 | PSMD12 mRNA, mean of log2-transformed values (row mean) (mean over all siRNA treatments): 1.792 | NFE2L1 mRNA, difference between means (DMSO - RUN89), log2 (over all siRNA treatments): -0.4084 | NFE2L2 mRNA, difference between means (DMSO - RUN89), log2 (over all siRNA treatments): -0.02122 | PSMB7 mRNA, difference between means (DMSO - RUN89), log2 (over all siRNA treatments): -0.3742 | PSMD12 mRNA, difference between means (DMSO - RUN89), log2 (over all siRNA treatments): -1.633
